Test results published in ChEMBL document CHEMBL2203251, “Discovery of two clinical histamine H(3) receptor antagonists: trans-N-ethyl-3-fluoro-3-[3-fluoro-4-(pyrrolidinylmethyl)phenyl]cyclobutanecarboxamide (PF-03654746) and trans-3-fluoro-3-[3-fluoro-4-(pyrrolidin-1-ylmethyl)phenyl]-N-(2-methylpropyl)cyclobutanecarboxamide (PF-03654764)” (J Med Chem, 2011).
Where “and” joins values, the source holds several entries; their conditions need not be identical. Equal values may be shown once.

What was measured:
in vivo [1] = settings: beagle, dog, po
Description: Tmax in po dosed beagle dog administered for 7 days

in vivo [2] = settings: Sprague-Dawley, rat, po
Description: Toxicity in po dosed Sprague-Dawley rat administered for 14 days

Histamine H3 receptor [3] = target: T1, Histamine H3 receptor (Homo sapiens, UniProt Q9Y5N1)
Description: Antagonist activity at human histamine H3 receptor expressed in human HEK293 cells assessed as inhibition of forskolin-induced cAMP release pretreated 10 mins prior forskolin stimulation measured after 4.5 hrs by spectrofluorimetric analysis

in vitro [4] = settings: human, liver microsomes
Description: Half life in human liver microsomes

Histamine H3 receptor [5] = target: T2, Histamine H3 receptor (Rattus norvegicus, UniProt Q9QYN8)
Description: Displacement of [3H]-n-alpha-methylhistamine from rat histamine H3 receptor homogenate after 60 mins by scintillation counting

in vivo [6] = settings: Sprague-Dawley, rat, po; remark: listed apart in the source
Description: Tmax in po dosed Sprague-Dawley rat administered for 14 days

in vivo [7] = settings: Sprague-Dawley, rat, plasma, po
Description: AUC (0 to 24 hrs) in po dosed Sprague-Dawley rat administered for 14 days

[8] = human, thle, 24 h
Description: Toxicity in human THLE cells assessed as drug-induced phospholipid accumulation after 24 hrs by Hoechst staining-based microscopic analysis

in vivo [9] = settings: beagle, dog, po, 50 mg/kg
[10] = AUC in Sprague-Dawley rat at 10 to 300 mg/kg, po administered for 14 days measured on day 1; format: ADME, organism-based; design: dose 10-300 mg/kg, route oral; settings: plasma
Liver microsomes = settings: human
Description: Unbound intrinsic clearance in human liver microsomes

in vitro [11] = settings: human, plasma
Description: Fraction unbound in human plasma

Histamine H3 receptor [12] = target: T2, Histamine H3 receptor; remark: listed apart in the source
Description: Antagonist activity at rat histamine H3 receptor expressed in human HEK293 cells assessed as inhibition of forskolin-induced cAMP release pretreated 10 mins prior forskolin stimulation measured after 4.5 hrs by spectrofluorimetric analysis

in vitro [13] = settings: human, Caco-2
Description: Permeability across apical to basolateral side in human Caco2 cells at 2 uM

in vivo [14] = settings: Sprague-Dawley, rat, po; remark: listed apart in the source
Description: Cmax in po dosed Sprague-Dawley rat administered for 14 days

[15] = AUC in beagle dog at 30 mg/kg, po administered for 7 days; format: ADME, organism-based, Canis lupus familiaris; design: dose 30 mg/kg, route oral; settings: plasma
Histamine H3 receptor [16] = target: T1, Histamine H3 receptor; remark: listed apart in the source
Description: Displacement of [3H]-n-alpha-methylhistamine from human histamine H3 receptor homogenate after 60 mins by scintillation counting

[17] = AUC in beagle dog at 50 mg/kg, po administered for 7 days measured on day 1; format: ADME, organism-based, Canis lupus familiaris; design: dose 50 mg/kg, route oral; settings: plasma
Canis familiaris [18] = assay: Toxicity in beagle dog assessed as compound-induced cadiomyocyte vacuole formation at 30 mg/kg, po administered for 7 days; format: organism-based, Canis lupus familiaris; design: dose 30 mg/kg, route oral; settings: in vivo, 168 h
in vivo [19] = settings: beagle, dog, po; remark: listed apart in the source
Description: Toxicity in po dosed beagle dog administered for 7 days

Canis familiaris [20] = assay: Toxicity in beagle dog assessed as convulsion at 50 mg/kg, po administered for 7 days measured on day 2; format: organism-based, Canis lupus familiaris; design: dose 50 mg/kg, route oral; settings: in vivo, 168 h
in vivo [21] = settings: beagle, dog, po; remark: listed apart in the source
Description: Cmax in po dosed beagle dog administered for 7 days

in vivo [22] = settings: Sprague-Dawley, rat, po; remark: listed apart in the source
Description: Tmax in po dosed Sprague-Dawley rat administered for 4 days

Canis familiaris [23] = assay: Toxicity in beagle dog assessed as testicular degradation at 30 mg/kg, po administered for 7 days; format: organism-based, Canis lupus familiaris; design: dose 30 mg/kg, route oral; settings: in vivo, 168 h
MDR1 (human) = assay: in vitro; settings: dog, MDCK-MDR1
Description: Efflux ratio of permeability across basal to apical side over apical to basolateral side in dog MDCK cells expressing human MDR1

in vivo [24] = settings: beagle, dog, plasma, po
Description: AUC (0 to 24 hrs) in po dosed beagle dog administered for 7 days

Homo sapiens [25] = species: Homo sapiens; assay: Selectivity ratio of Ki for human histamine H4 receptor to Ki for human histamine H3 receptor
Homo sapiens [26] = species: Homo sapiens; assay: Selectivity ratio of Ki for human histamine H1 receptor to Ki for human histamine H3 receptor
in vitro [27] = settings: rat, plasma
Description: Fraction unbound in rat plasma

in vivo [28] = settings: Sprague-Dawley, rat, po; remark: listed apart in the source
Description: Oral bioavailability in Sprague-Dawley rat

Homo sapiens [29] = species: Homo sapiens; assay: Selectivity ratio of Ki for human histamine H2 receptor to Ki for human histamine H3 receptor
Canis familiaris [30] = assay: Toxicity in beagle dog assessed as compound-induced cadiomyocyte vacuole formation at 25 mg/kg, po administered for 7 days; format: organism-based, Canis lupus familiaris; design: dose 25 mg/kg, route oral; settings: in vivo, 168 h
Rattus norvegicus [31] = assay: Toxicity in Sprague-Dawley rat assessed as compound-induced phospholipidosis in lung at >= 50 mg/kg, po administered for 4 days; format: organism-based; design: dose 50 mg/kg, route oral; settings: in vivo, 96 h
[32] = Cmax in Sprague-Dawley rat at 400 mg/kg, po administered for 4 days; format: ADME, organism-based; design: dose 400 mg/kg, route oral; settings: in vivo
Rattus norvegicus [33] = assay: Toxicity in Sprague-Dawley rat assessed as compound-induced phospholipidosis at 30 mg/kg, po administered for 14 days; format: organism-based; design: dose 30 mg/kg, route oral; settings: in vivo, 336 h
[34] = AUC (0 to 24 hrs) in po dosed Sprague-Dawley rat administered for 4 days; format: ADME, organism-based; design: time < 24 hr, route oral; settings: plasma
[35] = Apparent permeability across apical to basolateral side in MDCK cells at 2 uM; format: ADME, cell-based, Canis lupus familiaris; settings: dog
Rattus norvegicus [36] = assay: Toxicity in Sprague-Dawley rat assessed as mortality at 400 mg/kg, po administered for 4 days; format: organism-based; design: dose 400 mg/kg, route oral; settings: in vivo, 96 h
[37] = AUC in Sprague-Dawley rat at 5 mg/kg, po administered for 4 days; format: ADME, organism-based; design: dose 5 mg/kg, route oral; settings: plasma
[38] = AUC in Sprague-Dawley rat at >[…] mg/kg, po administered for 4 days; format: ADME, organism-based; settings: plasma, 50 mg/kg
Canis familiaris [39] = assay: Toxicity in beagle dog assessed as compound-induced cadiomyocyte vacuole formation at 10 mg/kg, po administered for 7 days; format: organism-based, Canis lupus familiaris; design: dose 10 mg/kg, route oral; settings: in vivo, 168 h
Rattus norvegicus [40] = assay: Toxicity in Sprague-Dawley rat assessed as compound-induced phospholipidosis at 5 to 30 mg/kg, po administered for 14 days; format: organism-based; design: dose 5-30 mg/kg, route oral; settings: in vivo, 336 h
[41] = Toxicity in po dosed Sprague-Dawley rat administered for 4 days; format: organism-based; settings: in vivo
[42] = Cmax in po dosed Sprague-Dawley rat administered for 4 days; format: ADME, organism-based; design: route oral; settings: in vivo
[43] = target: Voltage-gated inwardly rectifying potassium channel KCNH2 (Homo sapiens, UniProt Q12809); assay: Inhibition of human Erg expressed in human HEK293 cells; format: cell-based
[44] = Genotoxicity in micronucleus
Rattus norvegicus [45] = assay: Toxicity in Sprague-Dawley rat assessed as compound-induced phospholipidosis in kidney at >= 50 mg/kg, po administered for 4 days; format: organism-based; design: dose 50 mg/kg, route oral; settings: in vivo, 96 h
Canis familiaris [46] = assay: Toxicity in beagle dog assessed as convulsion at 30 mg/kg, po administered for 7 days measured on day 3; format: organism-based, Canis lupus familiaris; design: dose 30 mg/kg, route oral; settings: in vivo, 168 h
[47] = AUC in Sprague-Dawley rat at 300 mg/kg, po administered for 14 days; format: ADME, organism-based; design: dose 300 mg/kg, route oral; settings: plasma
[48] = Ratio of drug uptake in brain to plasma of Sprague-Dawley rat; format: ADME; settings: read-out: BPR
Rattus norvegicus [49] = assay: Toxicity in Sprague-Dawley rat assessed as salivation at >= 100 mg/kg, po administered for 14 days; format: organism-based; design: dose 100 mg/kg, route oral; settings: in vivo, 336 h
Rattus norvegicus [50] = assay: Toxicity in Sprague-Dawley rat assessed as decrease in body weight at 300 mg/kg, po administered for 14 days; format: organism-based; design: dose 300 mg/kg, route oral; settings: in vivo, 336 h
Rattus norvegicus [51] = assay: Toxicity in Sprague-Dawley rat assessed as decrease in food intake at 300 mg/kg, po administered for 14 days; format: organism-based; design: dose 300 mg/kg, route oral; settings: in vivo, 336 h
[52] = AUC in Sprague-Dawley rat at >[…] mg/kg, po administered for 14 days measured on day 1; format: ADME, organism-based; settings: plasma, 50 mg/kg
Rattus norvegicus [53] = assay: Toxicity in Sprague-Dawley rat assessed as compound-induced phospholipidosis in lung at >= 50 mg/kg, po administered for 14 days; format: organism-based; design: dose 50 mg/kg, route oral; settings: in vivo, 336 h
Rattus norvegicus [54] = assay: Toxicity in Sprague-Dawley rat assessed as compound-induced phospholipidosis in liver at >= 50 mg/kg, po administered for 14 days; format: organism-based; design: dose 50 mg/kg, route oral; settings: in vivo, 336 h

T2 sequence (Q9QYN8 whole entry): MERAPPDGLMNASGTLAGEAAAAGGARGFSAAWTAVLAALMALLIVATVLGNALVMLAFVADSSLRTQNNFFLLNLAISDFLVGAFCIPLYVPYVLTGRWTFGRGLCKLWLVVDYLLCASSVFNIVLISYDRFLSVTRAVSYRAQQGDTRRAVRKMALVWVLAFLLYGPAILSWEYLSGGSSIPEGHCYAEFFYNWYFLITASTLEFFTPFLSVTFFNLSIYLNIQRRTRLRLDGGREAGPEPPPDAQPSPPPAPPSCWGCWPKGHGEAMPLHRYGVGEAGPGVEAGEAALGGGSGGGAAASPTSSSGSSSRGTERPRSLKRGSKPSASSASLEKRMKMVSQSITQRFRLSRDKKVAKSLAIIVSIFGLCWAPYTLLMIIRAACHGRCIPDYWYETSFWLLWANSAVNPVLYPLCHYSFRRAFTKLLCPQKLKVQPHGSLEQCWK
T1 sequence (Q9Y5N1 whole entry): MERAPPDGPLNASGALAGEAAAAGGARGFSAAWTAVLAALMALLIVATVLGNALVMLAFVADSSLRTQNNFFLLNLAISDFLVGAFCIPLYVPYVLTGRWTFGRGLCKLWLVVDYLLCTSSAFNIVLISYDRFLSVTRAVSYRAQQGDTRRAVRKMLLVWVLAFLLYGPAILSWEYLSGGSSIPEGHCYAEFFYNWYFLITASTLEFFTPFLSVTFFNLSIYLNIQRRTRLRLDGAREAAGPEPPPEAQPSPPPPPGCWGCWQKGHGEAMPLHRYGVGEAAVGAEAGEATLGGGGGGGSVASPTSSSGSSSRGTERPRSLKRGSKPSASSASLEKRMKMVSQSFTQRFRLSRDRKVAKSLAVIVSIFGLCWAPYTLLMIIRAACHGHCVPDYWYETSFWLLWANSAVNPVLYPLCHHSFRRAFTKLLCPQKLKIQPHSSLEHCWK
Voltage-gated inwardly rectifying potassium channel KCNH2, sequence (Q12809 whole entry): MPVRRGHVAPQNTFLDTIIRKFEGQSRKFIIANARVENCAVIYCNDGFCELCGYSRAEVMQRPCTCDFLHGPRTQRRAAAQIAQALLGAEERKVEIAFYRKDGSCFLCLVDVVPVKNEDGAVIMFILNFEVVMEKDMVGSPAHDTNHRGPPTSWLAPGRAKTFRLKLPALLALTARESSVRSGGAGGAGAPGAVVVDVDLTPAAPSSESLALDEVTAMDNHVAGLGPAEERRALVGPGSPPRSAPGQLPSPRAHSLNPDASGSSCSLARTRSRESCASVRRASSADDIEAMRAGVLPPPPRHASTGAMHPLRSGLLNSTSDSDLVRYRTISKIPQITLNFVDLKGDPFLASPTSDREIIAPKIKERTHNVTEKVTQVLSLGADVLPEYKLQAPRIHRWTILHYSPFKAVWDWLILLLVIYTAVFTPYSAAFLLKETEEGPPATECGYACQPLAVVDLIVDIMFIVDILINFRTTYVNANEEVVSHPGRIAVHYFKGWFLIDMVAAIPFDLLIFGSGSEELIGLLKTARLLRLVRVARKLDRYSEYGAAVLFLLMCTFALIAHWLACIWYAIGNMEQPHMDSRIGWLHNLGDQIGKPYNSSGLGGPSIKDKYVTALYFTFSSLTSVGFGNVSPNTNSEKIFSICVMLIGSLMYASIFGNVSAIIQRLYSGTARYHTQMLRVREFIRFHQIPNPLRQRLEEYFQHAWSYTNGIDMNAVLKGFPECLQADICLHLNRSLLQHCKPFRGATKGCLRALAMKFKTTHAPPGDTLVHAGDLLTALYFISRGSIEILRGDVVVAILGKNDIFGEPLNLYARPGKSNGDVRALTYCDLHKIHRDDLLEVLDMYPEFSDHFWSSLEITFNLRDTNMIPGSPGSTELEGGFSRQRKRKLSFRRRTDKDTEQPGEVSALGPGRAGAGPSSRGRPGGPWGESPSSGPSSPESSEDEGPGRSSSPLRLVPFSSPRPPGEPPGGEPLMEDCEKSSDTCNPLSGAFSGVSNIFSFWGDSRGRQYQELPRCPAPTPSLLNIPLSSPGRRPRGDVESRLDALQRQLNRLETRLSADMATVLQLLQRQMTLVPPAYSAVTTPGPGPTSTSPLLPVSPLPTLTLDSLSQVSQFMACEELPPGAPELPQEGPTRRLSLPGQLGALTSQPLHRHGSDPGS
Description for physchem: Dissociation constant, pKa of the compound

Structure (SMILES)	Tmax at 168 h (in vivo [1]) [min]	MTD at 336 h (in vivo [2]) [mg/kg]	Ki (Histamine H3 receptor [3])	half-life (in vitro [4]) [min]	Ki (Histamine H3 receptor [5]) [nM]	Tmax at 336 h (in vivo [6]) [min]	AUC at 24 h (in vivo [7]) [ng·h/mL]	pKa (physchem)	CL free (Liver microsomes) [mL/min/kg]	fraction unbound (in vitro [11])	Ki (Histamine H3 receptor [12]) [nM]	Papp A→B at 2 µM (in vitro [13]) [×10⁻⁶ cm/s]	Cmax at 336 h (in vivo [14]) [µM]	Ki (Histamine H3 receptor [16])	MTD at 168 h (in vivo [19]) [mg/kg]	Cmax at 168 h (in vivo [21]) [µM]	Tmax at 96 h (in vivo [22]) [min]	efflux ratio (MDR1 (human))	AUC at 24 h (in vivo [24]) [ng·h/mL]	fraction unbound (in vitro [27])	further results
CC(=O)N(C)C[C@H]1C[C@H](c2ccc(CN3CCCC3)c(Cl)c2)C1	30	≥ 300	3.3 nM	> 120	160	30	4440	9.3	< 8	0.24	21	53.4	6.29	14 nM and 12.9 nM	< 30	5.13	30	1.27	2910	–	MED [8]: 245.3 µM; Cmax (in vivo [9]): 3200 ng/mL; AUC at 336 h [10]: ≤ 4440 ng·h/mL; AUC at 168 h [15]: 2910 ng·h/mL; AUC at 168 h [17]: 4780 ng·h/mL; Activity (Canis familiaris [18]): Toxic; Activity (Canis familiaris [20]): Toxic; Activity (Canis familiaris [23]): Toxic
CC(C)CNC(=O)[C@H]1C[C@@](F)(c2ccc(CN3CCCC3)c(F)c2)C1 [PF-03654764]	30	≥ 300	1.2 nM and 1.05 nM	> 120	19	30	67400	9.2	< 5	0.34	7.9	38.8	23	1.4 nM	≥ 15	18	30	0.96	18200	0.56	Ratio Ki (Homo sapiens [25]): > 1000; Ratio Ki (Homo sapiens [26]): > 1000; bioavailability (in vivo [28]): 20.2%; Ratio Ki (Homo sapiens [29]): > 1000
CN(C)Cc1ccc(-c2ccc(CN(C)C)cc2)cc1	–	–	–	–	9.3	–	–	–	219	–	–	–	–	1.3 nM	–	–	–	–	–	–	–
c1cc([C@H]2C[C@@H](CN3CCOCC3)C2)ccc1CN1CCCC1	30	≥ 30	0.89 nM	> 120	7.7	30	15500	7.7	< 8	0.78	3.5	8.2	5	2.2 nM	< 10	0.148	30	< 0.95	740	0.72	Activity (Canis familiaris [30]): Toxic; Activity (Rattus norvegicus [31]): Toxic; Cmax [32]: 3920 ng/mL; Activity (Rattus norvegicus [33]): Non-toxic; AUC at 24 h [34]: 1240 ng·h/mL; Papp A→B at 2 µM [35]: > 10 ×10⁻⁶ cm/s; Activity (Rattus norvegicus [36]): Toxic; AUC at 96 h [37]: 1240 ng·h/mL; AUC at 96 h [38]: 17400 ng·h/mL; Activity (Canis familiaris [39]): Toxic; Activity (Rattus norvegicus [40]): Toxic; MTD at 96 h [41]: ≥ 5 mg/kg; Cmax [42]: 0.302 µM; IC50 [43]: 300000 nM; Activity [44]: Non-toxic; Activity (Rattus norvegicus [45]): Toxic
CCNC(=O)[C@H]1C[C@@](F)(c2ccc(CN3CCCC3)c(F)c2)C1 [PF-03654746]	30	30	1.7 nM	> 120	37	30	189000	9.2	< 5	0.66	8.9	44.7	43.5	2.3 nM	≥ 15	13	30	1.1	18900	0.7	Ratio Ki (Homo sapiens [25]): > 1000; MED [8]: 302.4 µM; Activity (Canis familiaris [46]): Toxic; AUC at 336 h [47]: 189000 ng·h/mL; Kp [48]: 2.1; Ratio Ki (Homo sapiens [26]): > 1000; Activity (Rattus norvegicus [49]): Toxic; Activity (Rattus norvegicus [50]): Toxic; bioavailability (in vivo [28]): 25.9%; Activity (Rattus norvegicus [51]): Toxic; Ratio Ki (Homo sapiens [29]): > 1000
c1cnc(OC[C@H]2C[C@H](c3ccc(CN4CCCC4)cc3)C2)nc1	30	≥ 5	12 nM	> 120	82	30	1280	9.8	< 8	0.44	79	32.5	0.402	8.7 nM	–	–	30	0.9	–	0.47	MED [8]: 119.5 µM; AUC at 336 h [52]: 21300 ng·h/mL; Activity (Rattus norvegicus [53]): Toxic; Activity (Rattus norvegicus [54]): Toxic
